Test results from patent US12403130B2, “Pharmaceutical combinations for treating cancer” (Purdue Pharmaceutical Products L.P., priority 2014, dated 2025).
Read-outs that look alike come from different tables or passages of the source.

Key:
[1] = tested on: Vk12653 transplant model of relapsed/refractory multiple myeloma; assay: Vk12653 transplant model of relapsed/refractory multiple myeloma; type: in vivo; details: very aggressive, multi-drug resistant model
[2] = tested on: U251MG mouse xenograft model; assay: U251MG subcutaneously inoculated xenograft, time to progression; type: in vivo
Experimental: (§1) Subcutaneously Inoculated Xenografts
(§2) • Vehicle (control) • Radiotherapy (2Gy/5 consecutive days) • Temozolamide (16 mg/Kg for 5 consecutive days, po) • Temozolamide+radiotherapy • EDO-S101 (60 mg/Kg at day 1, 8 and 15 every 28 days, iv) • EDO-S101+radiotherapy

[3] = tested on: U87G glioblastoma cell line; assay: IC50 against glioblastoma cell line U87G; type: cell-based
[4] = tested on: T98G glioblastoma cell line; assay: IC50 against glioblastoma cell line T98G; type: cell-based
[5] = tested on: multiple myeloma cell lines; details: WO-A-2010/085377; in vitro; cited from earlier work
[6] = tested on: U251MG glioblastoma cell line; assay: IC50 against glioblastoma cell line U251MG; type: cell-based
Vk*MYC multiple myeloma = assay: Vk*MYC mouse model of multiple myeloma; type: in vivo; details: mice receiving only two doses, one week apart
Excerpt: A genetic rearrangement of the MYC locus, resulting in dysregulated expression of MYC, is the most common mutation in human multiple myeloma. The genetically engineered Vk*MYC mouse model is based on dysregulation of MYC, and has been extensively validated as a clinically and biologically faithful model of untreated multiple myeloma. Nine drugs or classes of drugs (DNA alkylators, glucocorticoids, proteasome inhibitors, IMiDs, nab-paclitaxel, histone deacetylase inhibitors, TACI-Ig, perifosine and SNS-032, a CDK2, 7, 9 inhibitor) have been previously reported with more than a 20% partial response rate in Vk*MYC MM. Among those, the first five also have greater than 20% PR in patients with multiple myeloma for a positive predictive value of 56%.

[7] = tested on: U87MG mouse xenograft model; assay: U87MG subcutaneously inoculated xenograft, time to progression; type: in vivo
Experimental: as §1, §2

[8] = tested on: T98G, U251MG and U87MG glioblastoma cell lines; assay: Radiotherapy and EDO-S101 against glioblastoma cell lines in vitro, surviving fraction; type: cell-based; details: radiotherapy in combination with EDO-S101 (5 μM or 10 μM) compared to radiotherapy alone
Experimental: FIG. 15 is a plot of % surviving fraction of in vitro T98G, U251MG and U87MG glioblastoma cell lines against dose of radiotherapy (Gy) in combination with two different concentrations of the compound of formula I (EDO-S101) against a control with radiotherapy alone.

[9] = combination with radiotherapy (2Gy/5 consecutive days), temozolamide 16 mg/Kg 5 consecutive days po, EDO-S101 60 mg/Kg day 1, 8, 15 iv
[10] = drug alone, EDO-S101 60 mg/Kg at day 1, 8 and 15 every 28 days, iv
[11] = unit not given for temozolamide

Structure (SMILES)	single agent activity [1]	time to progression of the tumours [2, 9]	time to progression of the tumours [2, 10]	IC50 [3] [µM]	IC50 ([4]; Homo sapiens) [µM]	activity relative to the activity shown by bendamustin [5]	IC50 ([6]; Homo sapiens, U-251) [µM]	duration of response (Vk*MYC multiple myeloma)	rate of response (Vk*MYC multiple myeloma)	time to progression of the tumours [7, 9]	time to progression of the tumours [7, 10] [days]	% survival rate for the glioblastoma cells (FIG. 15) [8]	IC50 [4] [µM]	IC50 [6] [µM]	time to progression of the tumours ([2]; mouse, in vivo) [days]	IC50 [3, 11] [µM]	IC50 [4, 11] [µM]	IC50 [6, 11] [µM]	time to progression of the tumours ([7]; mouse, in vivo) [days]
Cn1c(CCCCCCC(=O)NO)nc2cc(N(CCCl)CCCl)ccc21 [EDO-S101]	single agent activity	over 50 days	over 50 days	1.36	7.7	35-100 ×	6.6	more than three months	high rate of response	over 50 days	40	considerably reduced							
Cn1c(CCCC(=O)O)nc2cc(N(CCCl)CCCl)ccc21 [bendamustin]				50									52	30					
Cn1nnc2c(C(N)=O)ncn2c1=O [temozolamide]															42	20	> 100	20	35
